In US4243683A, “Tertiary alcohols” (May & Baker Limited, priority 1977, dated 1981):
Where “and” joins values, the source holds several entries; their conditions need not be identical. Equal entries are not always repeated. Where two headings read alike, the source gives them in different places.

Tests used:
[1] = tested on: ticks (Ornithodoros moubata Murray); test: Ticks, first instar, fed on blood containing test compound; type: in vivo; details: 5.0 μg per 0.3 ml blood, 14 days at 30° C.
Experimental: First instar ticks (Ornithodoros moubata Murray) were allowed to engorge through a stretched artificial membrane (Parafilm M) on blood at 37° C. and containing a test compound added in a suitable solvent at a rate of 5.0 μg per 0.3 ml blood. Mortality and moulting were observed after 14 days holding at 30° C.

hamsters = test: Antifertility in hamsters (termination of pregnancy, subcutaneous); type: in vivo, hamster; details: Mesocricetus auratus, sc
Experimental: On the 4th day of pregnancy, hamsters were each injected subcutaneously with an aqueous solution of a compound of formula I (prepared by dissolving the compound in a minimum volume of ethanol and diluting to the appropriate volume with 0.9% w/v saline). On the 7th day of pregnancy the hamsters were killed and their uteri were examined.
Alternatively, the hamsters were dosed on 3 consecutive days (the 3rd, 4th and 5th days of pregnancy) and killed on the 12th day of pregnancy.
The dose required for termination of pregnancy in 50% of the hamsters (ED50) was calculated mathematically.

[2] = tested on: uterine contraction in rats; test: Stimulation of uterine contraction in rats compared with PGE1; type: in vivo, rat; details: for Activity (compared with PGE1): intravenous, ratio to PGE1
Experimental: Pregnant anaesthetised rats were treated with the compounds of the invention by the intravenous or intravaginal route and the activity of each compound in stimulating uterine contraction was compared with that of a standard compound, the expensive prostaglandin E1 (PGE1), and expressed as a ratio.

[3] = tested on: houseflies (Musca domestica L.); test: Houseflies, injection in dorsal thorax, mortality and egg hatch; type: in vivo; details: for % egg hatch: 48 hours; for % mortality: 24 hours, 1440 min
Experimental: Adult houseflies (Musca domestica L.) of mixed sex were injected in the dorsal thorax with 1.0 μl of a solution of a test compound in a mixture of acetone and physiological saline (1:1 v/v). Anaesthesia with carbon dioxide was used, and subsequent holding was at 25° C. A source of honey-water was provided. Fly mortality and oviposition were recorded after 24 hours and egg hatching after 48 hours. Similar, control, experiments were carried out using a mixture of acetone and physiological saline alone.

[4] = tested on: Lucilia sericata prepupae; test: Lucilia pupae, topical treatment of prepupae; type: in vivo
Experimental: Lucilia sericata prepupae (taken from a batch of the insects of which approximately 50% were pupated) in groups of 10 were each treated topically with 1 μl of a solution of a test compound in acetone. Controls were treated with acetone alone. The insects were stored in the dark at 30° C. for 8 days, and then the number of insects which had hatched as normal adult flies, and any other effects, were observed.

female rats = details: rat, in vivo, po, 1 mg/kg
Experimental: (§1) In tests, four female rats and one female dog were each dosed orally with compound A at a rate of 1.0 mg/kg animal body weight. Before administration to the animals the compound was dissolved in a minimum quantity of a 1% w/w solution of Tween 80 emulsifier ("Tween" is a registered Trade Mark) in ethanol, and the resulting solution was diluted with distilled water to a concentration of 0.02% w/w.

female dog = details: in vivo, po, 1 mg/kg
Experimental: as §1

[5] = tested on: mosquito larvae (Aedes aegypti L.); test: Mosquito larvae in water containing test compound; type: in vivo; details: 25° C.
Experimental: Mosquito larvae (Aedes aegypti L.), at the late third or early fourth instar stage, were introduced into water containing a small concentration of a test compound, at 25° C. The water also contained 0.4% v/v acetone which had been employed as the vehicle for the introduction of the test compound. The larvae were fed with dried powdered bovine liver after 2 hours. After 24 hours at 25° C. a mortality count was made, and subsequent metamorphosis and emergence as adults were observed after seven days at 25° C., and compared with controls.

[6] = 288 h, dosed 3rd, 4th and 5th days of pregnancy, examined day 12, read-out: ED50 (dose required for termination of pregnancy in 50% of the hamsters)
[7] = Musca domestica, 24 h, 0.5 μg/fly
[8] = test 1, 1.0 μg/prepupa, 8 days at 30° C., control 10
[9] = Musca domestica, 24 h, 0.25 μg/fly
[10] = 168 h, dosed 4th day of pregnancy, examined day 7, read-out: ED50 (dose required for termination of pregnancy in 50% of the hamsters)

Row | Structure (SMILES) | % mortality [1] | % moulting normally [1] | Activity (compared with PGE1) [2] | % egg hatch ([3]; 0.5 μg/fly) | mortality at 0.5 µg/fly [3, 7] | also measured
1 | CCCCCC(O)/C=C/C[C@H](C)CCCC(C)(C)O (stereo partly drawn) [Q, (6R,10RS)-2,6-dimethylpentadec-8-trans-ene-2,10-diol] | 0% | 0% | 0.05 | no eggs | 70% | ED50 (hamsters; [6]): 2 mg/kg; Number hatched (out of 10) [4, 8]: 0 out of 10; Number hatched (out of 10) ([4]; test 2, 0.2 μg/prepupa, control 7): 6 out of 10; Number hatched (out of 10) ([4]; test 2, 0.4 μg/prepupa, control 7): 5 out of 10; Number hatched (out of 10) ([4]; test 2, 0.6 μg/prepupa, control 7): 1 out of 10; Number hatched (out of 10) ([4]; test 2, 0.8 μg/prepupa, control 7): 0 out of 10; Number hatched (out of 10) ([4]; test 2, 1.0 μg/prepupa, 8 days at 30° C., control 7): 2 out of 10
2 | C[C@@H](C/C=C/C(=O)CCc1ccccc1Cl)CCCC(C)(C)O [N, (R)-12-(2-chlorophenyl)-2-hydroxy-2,6-dimethyldodec-8-trans-en-10-one] | 0% | 0% |  | 100% | 50% | % egg hatch ([3]; 0.25 μg/fly): 100%; % mortality ([3]; 0.5 μg/fly): 60%; mortality at 0.25 µg/fly [3, 9]: 40%
3 | C[C@@H](C/C=C/C(=O)COc1ccccc1Cl)CCCC(C)(C)O [B, (R)-11-(2-chlorophenoxy)-2-hydroxy-2,6-dimethylundec-8-trans-en-10-one] |  |  | 1.2 |  |  | 
4 | C[C@@H](C/C=C/C(O)COc1ccccc1)CCCC(C)(C)O (stereo partly drawn) [P, (6R,10RS)-2,6-dimethyl-11-phenoxyundec-8-trans-ene-2,10-diol] | 0% | 0% | 0.14 | no eggs | 50% | Number hatched (out of 10) [4, 8]: 1 out of 10
5 | C[C@@H](C/C=C/C(=O)COc1cccc(Cl)c1)CCCC(C)(C)O [O, (R)-11-(3-chlorophenoxy)-2-hydroxy-2,6-dimethylundec-8-trans-en-10-one] |  |  | 0.91 |  |  | 
6 | CCCCCC(=O)/C=C/C[C@H](C)CCCC(C)(C)O [J, (R)-2-hydroxy-2,6-dimethylpentadec-8-trans-en-10-one] |  |  | 0.02 |  |  | 
7 | CCCCC(C)(C)C(=O)/C=C/C[C@H](C)CCCC(C)(C)O [K, (R)-2-hydroxy-2,6,11,11-tetramethylpentadec-8-trans-en-10-one] |  |  | 0.57 |  |  | ED50 (hamsters; [6]): < 0.5 mg/kg
8 | C[C@@H](C/C=C/C(=O)COc1ccccc1)CCCC(C)(C)O [A, (R)-2-hydroxy-2,6-dimethyl-11-phenoxyundec-8-trans-en-10-one] |  |  | 3.7 |  |  | weight loss (female rats): no weight loss; weight loss (female dog): no weight loss; ED50 (hamsters; [6]): ~2 mg/kg; times as active as PGE1 ([2]; pervaginal): over 100 times; Number hatched (out of 10) ([4]; test 3, 1.0 μg/prepupa, control 9): 2 out of 10
9 | C[C@@H](C/C=C/C(O)CCc1ccccc1)CCCC(C)(C)O (stereo partly drawn) [R, (6R,10RS)-2,6-dimethyl-12-phenyldodec-8-trans-ene-2,10-diol] | 0% | 0% | 0.14 |  |  | ED50 (hamsters; [6]): 0.5 mg/kg; larvae killed within 24 hours ([5]; 0.08 parts per million w/v): all; mortality at 0.04 µg/mL ([5]; Aedes aegypti, 24 h, 0.04 parts per million, read-out: larvae killed within 24 hours): ~50%; % egg hatch ([3]; 0.25 μg/fly): 100%; mortality at 0.25 µg/fly [3, 9]: 40%
10 | CCCCC(C)(C)C(O)/C=C/C[C@H](C)CCCC(C)(C)O (stereo partly drawn) [Compound T, (6R,10RS)-2,6,11,11-tetramethylpentadec-8-trans-ene-2,10-diol] |  |  |  |  |  | ED50 (hamsters; [10]): 2 mg/kg
11 | C[C@@H](C/C=C/C(O)CCCc1ccccc1)CCCC(C)(C)O (stereo partly drawn) [S, (6R,10RS)-2,6-dimethyl-13-phenyltridec-8-trans-ene-2,10-diol] | 29% | 17% |  |  | 30% | % egg hatch ([3]; 0.25 μg/fly): 100%; % mortality ([3]; 0.5 μg/fly): 40%; mortality at 0.25 µg/fly [3, 9]: 20%
12 | C[C@@H](C/C=C/C(=O)CCCc1ccccc1)CCCC(C)(C)O [F, (R)-2-hydroxy-2,6-dimethyl-13-phenyltridec-8-trans-en-10-one] |  |  | 0.91 |  |  | 
13 | C[C@@H](C/C=C/C(=O)CCc1ccc(Cl)cc1)CCCC(C)(C)O [L, (R)-12-(4-chlorophenyl)-2-hydroxy-2,6-dimethyldodec-8-trans-en-10-one] | 0% | 0% |  | no eggs | 80% | 
14 | C[C@@H](C/C=C/C(=O)Cc1ccccc1)CCCC(C)(C)O [I, (R)-2-hydroxy-2,6-dimethyl-11-phenylundec-8-trans-en-10-one] |  |  | 0.09 |  |  | 
15 | C[C@@H](C/C=C/C(=O)CCc1cccc(Cl)c1)CCCC(C)(C)O [M, (R)-12-(3-chlorophenyl)-2-hydroxy-2,6-dimethyldodec-8-trans-en-10-one] | 0% | 0% |  | 0% |  | % egg hatch ([3]; 0.25 μg/fly): 100%; % mortality ([3]; 0.5 μg/fly): 80% and 40%; mortality at 0.25 µg/fly [3, 9]: 30%
16 | C[C@@H](C/C=C/C(=O)COc1ccc(Cl)cc1)CCCC(C)(C)O [C, (R)-11-(4-chlorophenoxy)-2-hydroxy-2,6-dimethylundec-8-trans-en-10-one] |  |  | 0.32 |  |  | 
17 | C[C@@H](C/C=C/C(=O)CCc1ccccc1)CCCC(C)(C)O [G, (R)-2-hydroxy-2,6-dimethyl-12-phenyldodec-8-trans-en-10-one] | 0% | 0% | 0.67 | no eggs | 60% | ED50 (hamsters; [10]): 5 mg/kg; ED50 (hamsters; [6]): 4 mg/kg; % egg hatch ([3]; 0.1 μg/fly): 100%; mortality at 0.1 µg/fly ([3]; Musca domestica, 24 h, 0.1 μg/fly): 60%
